Assay results as given in ChEMBL document CHEMBL4808171, “Structure-Activity Relationship Study and Biological Evaluation of 2-(Disubstituted phenyl)-indole-5-propanoic Acid Derivatives as GPR40 Full Agonists” (J Med Chem, 2021).
Activity calls are given as the source filed them. No cut-off for these calls is given here.

How the values were obtained:
[1] = Tmax in CD-1 mouse at 30 mg/kg, po measured up to 8 hrs by LC-MS/MS analysis; assay type: ADME, organism-based; details: in vivo
[2] = molecular target: T1, Free fatty acid receptor 3 (Homo sapiens, UniProt O14843); assay: Agonist activity at FFAR3 (unknown origin); assay type: functional
T1 sequence (O14843 whole entry): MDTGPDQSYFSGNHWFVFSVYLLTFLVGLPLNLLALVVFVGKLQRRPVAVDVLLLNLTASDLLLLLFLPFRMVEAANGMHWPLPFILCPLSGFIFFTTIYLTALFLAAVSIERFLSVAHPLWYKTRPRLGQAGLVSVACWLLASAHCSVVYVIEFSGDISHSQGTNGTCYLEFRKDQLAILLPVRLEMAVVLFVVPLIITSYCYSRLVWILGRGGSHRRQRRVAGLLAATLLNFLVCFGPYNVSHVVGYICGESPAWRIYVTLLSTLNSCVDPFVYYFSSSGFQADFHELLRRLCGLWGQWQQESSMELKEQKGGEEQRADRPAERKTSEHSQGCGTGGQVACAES

[3] = molecular target: Free fatty acid receptor 1 (Mus musculus) (UniProt Q76JU9); assay: Agonist activity at GPR40 in mouse MIN6 cells assessed as fold increase in 17 mM glucose-mediated insulin secretion at 1 to 10 uM incubated for 2 hrs by ELISA relative to control; assay type: functional, cell-based; details: filed as positive allosteric modulator, dose 1-10 µM
Sequence of Free fatty acid receptor 1 (Mus musculus) (Q76JU9 whole entry): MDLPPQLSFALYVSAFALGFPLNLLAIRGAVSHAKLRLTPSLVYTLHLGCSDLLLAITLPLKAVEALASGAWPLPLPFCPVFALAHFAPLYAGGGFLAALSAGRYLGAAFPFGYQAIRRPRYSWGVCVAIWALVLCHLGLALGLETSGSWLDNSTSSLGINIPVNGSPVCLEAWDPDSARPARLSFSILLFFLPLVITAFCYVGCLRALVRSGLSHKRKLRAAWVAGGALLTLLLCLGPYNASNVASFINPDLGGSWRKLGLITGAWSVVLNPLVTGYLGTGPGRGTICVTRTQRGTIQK

[4] = molecular target: T2, Peroxisome proliferator-activated receptor gamma (Homo sapiens) (UniProt P37231); assay: Agonist activity at human PPARgamma expressed in CHO cells assessed as increase in receptor transcriptional activity at 1 uM incubated for 24 hrs by dual luciferase reporter gene assay relative to rosiglitazone; assay type: cell-based
T2 sequence (whole entry): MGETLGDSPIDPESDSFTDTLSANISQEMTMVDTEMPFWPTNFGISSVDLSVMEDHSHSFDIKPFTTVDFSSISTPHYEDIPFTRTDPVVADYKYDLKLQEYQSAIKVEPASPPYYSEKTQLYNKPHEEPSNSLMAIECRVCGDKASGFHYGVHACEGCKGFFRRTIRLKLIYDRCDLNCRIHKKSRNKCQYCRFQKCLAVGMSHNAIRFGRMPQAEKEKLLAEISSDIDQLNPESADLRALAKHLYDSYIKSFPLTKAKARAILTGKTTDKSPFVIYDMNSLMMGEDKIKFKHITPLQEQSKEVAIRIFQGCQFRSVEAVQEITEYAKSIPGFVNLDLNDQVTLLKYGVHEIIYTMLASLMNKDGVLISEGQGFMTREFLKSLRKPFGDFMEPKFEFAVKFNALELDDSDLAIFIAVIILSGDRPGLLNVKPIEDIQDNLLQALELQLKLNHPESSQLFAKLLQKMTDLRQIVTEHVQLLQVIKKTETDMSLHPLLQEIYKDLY

[5] = Half life in CD-1 mouse at 10 mg/kg, po measured up to 8 hrs by LC-MS/MS analysis; assay type: ADME, organism-based; details: in vivo
[6] = Metabolic stability in human liver microsomes assessed as intrinsic clearance; assay type: ADME, Microsome; details: read-out: CLH
[7] = Clast in CD-1 mouse at 30 mg/kg, po measured up to 8 hrs by LC-MS/MS analysis; assay type: ADME, organism-based; details: in vivo, read-out: Clast
[8] = molecular target: Free fatty acid receptor 1 (Homo sapiens, UniProt O14842); assay: Agonist activity at GPR40 (unknown origin) expressed in CHO cells assessed as increase in cAMP level incubated for 30 mins by cAMP-Glo assay; assay type: functional, cell-based
Sequence of Free fatty acid receptor 1 (O14842 whole entry): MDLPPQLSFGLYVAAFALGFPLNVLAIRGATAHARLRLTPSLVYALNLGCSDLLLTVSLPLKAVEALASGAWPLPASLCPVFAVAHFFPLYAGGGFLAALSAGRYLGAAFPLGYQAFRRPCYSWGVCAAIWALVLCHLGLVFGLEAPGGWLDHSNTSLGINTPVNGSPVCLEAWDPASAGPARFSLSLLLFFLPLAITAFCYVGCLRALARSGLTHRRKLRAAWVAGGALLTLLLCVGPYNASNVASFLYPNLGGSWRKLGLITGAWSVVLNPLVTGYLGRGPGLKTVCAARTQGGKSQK

[9] = system: STC1; assay: Induction of GLP-1 secretion in […] STC1 cells at 30 uM after 1 hrs by ELISA; assay type: functional, cell-based
[10] = Clast in CD-1 mouse at 10 mg/kg, po measured up to 8 hrs by LC-MS/MS analysis; assay type: ADME, organism-based; details: in vivo, read-out: Clast
[11] = molecular target: Free fatty acid receptor 1 (Mus musculus) (UniProt Q76JU9); assay: Agonist activity at GPR40 in mouse MIN6 cells assessed as fold increase in 3 mM glucose-mediated insulin secretion at 10 uM incubated for 2 hrs by ELISA relative to control; assay type: functional, cell-based
[12] = Tlast in CD-1 mouse at 90 mg/kg, po measured up to 8 hrs by LC-MS/MS analysis; assay type: ADME, organism-based; details: in vivo
[13] = AUC (0 to t) in CD-1 mouse at 90 mg/kg, po measured up to 8 hrs by LC-MS/MS analysis; assay type: ADME, organism-based; set-up: route oral, dose 90 mg/kg, time <=8; details: in vivo
[14] = Cmax in CD-1 mouse at 30 mg/kg, po measured up to 8 hrs by LC-MS/MS analysis; assay type: ADME, organism-based; set-up: route oral, dose 30 mg/kg, time <=8; details: in vivo
[15] = molecular target: T3, Peroxisome proliferator-activated receptor gamma (Homo sapiens, UniProt P37231); assay: Agonist activity at human PPARgamma expressed in CHO cells assessed as increase in receptor transcriptional activity incubated for 24 hrs by dual luciferase reporter gene assay; assay type: cell-based
T3 sequence (P37231 whole entry): T2 sequence (whole entry)

[16] = Metabolic stability in mouse liver microsomes assessed as intrinsic clearance; assay type: ADME, Microsome; details: read-out: CLH
[17] = system: Mus musculus; assay: Antidiabetic activity in db/db mouse assessed as reduction in plasma glucose level at 30 mg/kg, po pretreated 1 hr before glucose challenge measured up to 120 mins by Oral glucose tolerance test; assay type: functional, organism-based
[18] = system: Mus musculus; assay: Antidiabetic activity in C57BL/6J mouse assessed as increase in plasma GLP1 level at 30 mg/kg, po measured after 30 mins by ELISA relative control; assay type: functional, organism-based
[19] = system: Mus musculus; assay: Antidiabetic activity in C57BL/6J mouse assessed as increase in plasma GLP1 level at 30 mg/kg, po measured after 30 mins in presence of KR-62436 by ELISA relative to KR-62436 treated control; assay type: functional; details: 0.5 h

SMILES | Tmax [1] | EC50 [2] | fold change (FC) [3] | Emax [4] | half-life [5] | microsomal CLint [6] | concentration at 8 h [7] | EC50 [8] | Activity [9] | concentration at 8 h [10] | Activity [11] | Tlast [12] | AUC(0-t) at 8 h [13] | Cmax [14] | EC50 ([15]; read-out: EC50) | microsomal CLint [16] | Activity [17] | Activity [18] | Activity [19] | EC50 ([15]; cho)
Cc1cc(F)ccc1-c1cc2cc(CCC(=O)O)ccc2[nH]1 | 26.4 min | > 25 µM | 1.16 | 32.5% | 78 min | ≤ 4 µL/min/mg | 189 ng/mL | 0.681 µM | Active | 11 ng/mL | inactive | 8 h | 9620 ng·h/mL | 28700 ng/mL | 56.9 µM | ≤ 4 µL/min/mg | – | – | – | –
Cc1ccc(C)c(-c2cc3cc(CCC(=O)O)ccc3[nH]2)c1 | 19.8 min | > 25 µM | – | – | 144 min | ≤ 4 µL/min/mg | 62 ng/mL | 7.53 µM | Active | 1250 ng/mL | inactive | 8 h | 186000 ng·h/mL | 24000 ng/mL | – | 10.5 µL/min/mg | Active | Active | 163% | Not Active
